Patent US20160015786A1, “MOBILIZING AGENTS AND USES THEREFOR” (MATER MEDICAL RESEARCH INSTITUTE LIMITED, priority 2013, published 2016)

Experiments:
[1] = test system: hematopoietic stem and progenitor cells; test: Phenotypic HSCs, HSPCs and myeloid progenitors in blood, spleen and bone marrow by flow cytometry; format: in vivo, C57BL/6 mice
Experimental: Additional HIF-α potentiating agents in the form of PHD inhibitors were tested for their ability to enhance mobilization induced by G-CSF. Compound A, Compound B or Compound C, were tested in male, 7 weeks-old C57BL/6 mice. Mice were injected twice daily sub-cutaneously with rhuG-CSF at a dose of 125 μg/kg per injection for four days. Mice were gavaged with 20 mg/kg Compound A, Compound B, Compound C or vehicle control once daily for three days beginning on day 1 of the experiment.
At the end of treatment, blood was harvested by cardiac puncture, mice were sacrificed by cervical dislocation and spleens harvested. Femurs were removed, cleaned and the bone marrow was flushed with 1 mL PBS+10% newborn calf serum (NCS).
The number of phenotypic hematopoietic stem and progenitor cells remaining in the bone marrow following treatment was measured by flow cytometry using antibodies specific for lineage markers (CD3, CD5, CD45R/B220, F4/80, Gr1, CD41, Ter119), Sca-1, Kit, CD48 and CD150. Similarly, the number of phenotypic hematopoietic stem cells mobilized into the blood and spleen were measured. Colony assays were also performed on blood and spleen to determine the number of colony forming cells per mL of blood and per spleen. All results are presented as mean f standard deviation with n=6 per groups. Levels of significance for differences were calculated using the Student's t-test.
All procedures were approved by the animal experimentation ethics committee of the University of Queensland. All experiments were performed on nine to twelve-week old C57BL/6 male mice or genetically modified mice back-crossed at least 10 times into C57BL/6. Recombinant human G-CSF (Amgen, Thousand Oaks, Calif.) was injected twice daily subcutaneously at 125 μg/kg per injection for up to 4 consecutive days. Plerixafor (AMD3100 octohydrochloride, Tocris Bioscience, Bristol, UK) was injected intraperitoneally as a single 16 mg/kg dose corresponding to 10 mg/kg of AMD3100 base. Tissues were harvested 1 h after Plerixafor administration. […] Compounds H and J were administered at 60 mg/kg and Compound K was administered at 100 mg/kg. Control mice were injected with an equivalent volume of saline. At specified time-points, mice were anesthetized with isoflurane before cardiac puncture to harvest blood. Mice were then euthanized by cervical dislocation and BM and bones harvested.
Following flushing with PBS plus 2% NCS, enriched central BM cells were pelleted at 370×g for 5 minutes at 4° C. and resuspended in CD16/CD32 hybridoma 2.4G2 supernatant to block IgGFc receptors. HSCs were stained with the biotinylated lineage antibody cocktail (CD3, CD5, B220, CD11b, Gr-1, Ter119) and biotinylated CD41 together with streptavidin (SAV)-Pacific Blue, anti-Sca-1-PECY7, anti-KIT-APC, CD48-FITC and CD150-PE as previously described (17). Data were acquired on a CyAn (Dako Cytomation) flow cytometer and analyzed following compensation with single color controls using FlowJo software (Tree Star, Ashland, Oreg.).

[2] = test system: HIF-1α protein; test: Western blot of bone marrow cell lysates for HIF-1α stabilization in treated mice; format: in vivo, C57Bl/6 mice; conditions: FIG. 1A
From the text: FIGS. 1A, 1B, 1C, and 1D are graphical representations showing the effect of Compound X and G-CSF on HIF-1α protein and CFC mobilization. (1A) Western blot analysis of bone marrow (BM) cell lysates from mice treated with saline (Saline), with Compound X for 3 days (X3), with G-CSF for 2 days (G2) or with both Compound X and G-CSF (G2X3) for presence of HIF-1α and β-actin. Each lane represents a different mouse. […] (1D) Time-course numbers of CFC per mL blood or per spleen for mice treated with Plerixafor with or without Compound X. Mice were treated with Plerixafor for 1 hour (P1) together with Compound X for 1, 2, 3 or 4 days (P1X1-P1X4). Data are mean±SD of 6 mice per condition. * p<0.05; ** p<0.01; *** p<0.001.
To evaluate whether pharmacological stabilization of HIF-1α protein would enhance HSC mobilization in response to G-CSF, C57Bl/6 mice were treated with recombinant human G-CSF (rhuG-CSF) twice daily for 1-3 days together with a PHD inhibitor, Compound X, daily for 3 days. […] Mobilization of colony-forming cells (CFCs) to the blood and spleen were measured (FIG. 1B). […] To assess the optimum duration of Compound X treatment, Compound X was administered for 1-4 days and G-CSF for the last 2 days before tissue sampling (FIG. 1C).
All procedures were approved by the animal experimentation ethics committee of the University of Queensland. […]

[3] = Compound X added to 2 days G-CSF plus Plerixafor, P<0.01
[4] = G-CSF 2 days together with Compound X, p<0.005

O=C(O)CNC(=O)c1ncc2cc(Sc3ccccc3)ccc2c1O [Compound X, [(4-Hydroxy-7-phenylsulfanyl-isoquinoline-3-carbonyl)-amino]-acetic acid]
boost of mobilization of HSPCs in the blood [1, 3]: 2.5 fold
boost of mobilization of HSPCs in the spleen [1, 3]: 4 fold
boost of mobilization of phenotypic HSCs [1, 3]: 3 fold
number of phenotypic HSCs and HSPCs in the blood ([1]; Compound X added to 4 days G-CSF and Plerixafor, P<0.001): dramatically increased
number of Lin−Sca1+Kit+ HSPCs in spleen versus G-CSF alone [1, 4]: tripled
number of Lin−Sca1+Kit+ HSPCs in the blood versus G-CSF alone [1, 4]: doubled
increase in number of phenotypic HSCs versus G-CSF alone ([1]; G-CSF 2 days together with Compound X, p<0.005, FIG. 2C-D): 3 fold
stabilization of HIF-1α protein in bone marrow leukocytes ([2]; Compound X daily for 3 days): stabilization of HIF-1α protein was demonstrated
stabilization of HIF-1α protein compared to G-CSF alone ([2]; Compound X in combination with G-CSF): significantly increased
